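How tested: cells in 96-well plates exposed to compound for 48 hours at five concentrations. GI50 = concentration required for 50% inhibition of growth. Definition used: TGI = concentration required for complete inhibition of growth.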
Experiments:
Assay in all cases: NCI anticancer screen, dose series, 48 h
NCI-H460 lung = tested on: NCI-H460 lung
SK-MEL-2 melanoma = tested on: SK-MEL-2 melanoma
A498 renal = tested on: A498 renal
M14 melanoma = tested on: M14 melanoma
CAKI-1 renal = tested on: CAKI-1 renal
BT-549 breast = tested on: BT-549 breast
CCRF-CEM leukemia = tested on: CCRF-CEM leukemia
SW-620 colon = tested on: SW-620 colon
ACHN renal = tested on: ACHN renal
786-0 renal = tested on: 786-0 renal
KM12 colon = tested on: KM12 colon
RXF 393 renal = tested on: RXF 393 renal
NCI-H226 lung = tested on: NCI-H226 lung
LOX IMVI melanoma = tested on: LOX IMVI melanoma
DU-145 prostate = tested on: DU-145 prostate
MDA-MB-231 breast = tested on: MDA-MB-231 breast
HT29 colon = tested on: HT29 colon
IGROV1 ovarian = tested on: IGROV1 ovarian
T-47D breast = tested on: T-47D breast
NCI-H522 lung = tested on: NCI-H522 lung
HL-60(TB) leukemia = tested on: HL-60(TB) leukemia
NCI/ADR-RES ovarian = tested on: NCI/ADR-RES ovarian
HCC-2998 colon = tested on: HCC-2998 colon
HCT-116 colon = tested on: HCT-116 colon
SR leukemia = tested on: SR leukemia
HOP-62 NSCLC = tested on: HOP-62 NSCLC
SF-268 CNS = tested on: SF-268 CNS
SK-MEL-28 melanoma = tested on: SK-MEL-28 melanoma
SN12C renal = tested on: SN12C renal
SK-MEL-5 melanoma = tested on: SK-MEL-5 melanoma
OVCAR-4 ovarian = tested on: OVCAR-4 ovarian
K-562 leukemia = tested on: K-562 leukemia
HOP-92 NSCLC = tested on: HOP-92 NSCLC
UACC-62 melanoma = tested on: UACC-62 melanoma
PC-3 prostate = tested on: PC-3 prostate
RPMI-8226 leukemia = tested on: RPMI-8226 leukemia
SK-OV-3 ovarian = tested on: SK-OV-3 ovarian
SNB-75 CNS = tested on: SNB-75 CNS
COLO 205 colon = tested on: COLO 205 colon
OVCAR-5 ovarian = tested on: OVCAR-5 ovarian
SF-295 CNS = tested on: SF-295 CNS
OVCAR-8 ovarian = tested on: OVCAR-8 ovarian
MOLT-4 leukemia = tested on: MOLT-4 leukemia
U251 CNS = tested on: U251 CNS
A549 NSCLC = tested on: A549 NSCLC
NCI-H23 lung = tested on: NCI-H23 lung
HCT-15 colon = tested on: HCT-15 colon
MALME-3M melanoma = tested on: MALME-3M melanoma
SNB-19 CNS = tested on: SNB-19 CNS
MCF7 breast = tested on: MCF7 breast
EKVX NSCLC = tested on: EKVX NSCLC
TK-10 renal = tested on: TK-10 renal
HS 578T breast = tested on: HS 578T breast
UO-31 renal = tested on: UO-31 renal
MDA-MB-435 = tested on: MDA-MB-435
SF-539 CNS = tested on: SF-539 CNS
UACC-257 melanoma = tested on: UACC-257 melanoma

SMILES: O=C(CCCCCCN1CC(=O)N2[C@@H](c3cccc(Br)c3)c3[nH]c4ccccc4c3C[C@H]2C1=O)NO
- GI50 (NCI-H460 lung): 2.43 µM
- TGI (NCI-H460 lung): 11.5 µM
- GI50 (SK-MEL-2 melanoma): 2.77 µM
- TGI (SK-MEL-2 melanoma): 12.7 µM
- GI50 (A498 renal): 2.75 µM
- TGI (A498 renal): 6.31 µM
- GI50 (M14 melanoma): 2.81 µM
- TGI (M14 melanoma): 14.3 µM
- GI50 (CAKI-1 renal): 2.6 µM
- TGI (CAKI-1 renal): 15 µM
- GI50 (BT-549 breast): 3.81 µM
- TGI (BT-549 breast): 16.1 µM
- GI50 (CCRF-CEM leukemia): 0.709 µM
- TGI (CCRF-CEM leukemia): > 16.7 µM
- GI50 (SW-620 colon): 2.24 µM
- TGI (SW-620 colon): 14.7 µM
- GI50 (ACHN renal): 3.85 µM
- TGI (ACHN renal): 14.9 µM
- GI50 (786-0 renal): 3.86 µM
- TGI (786-0 renal): 11.1 µM
- GI50 (KM12 colon): 2.95 µM
- TGI (KM12 colon): 6.65 µM
- GI50 (RXF 393 renal): 1.51 µM
- TGI (RXF 393 renal): 5.21 µM
- GI50 (NCI-H226 lung): 5.01 µM
- TGI (NCI-H226 lung): > 16.7 µM
- GI50 (LOX IMVI melanoma): 0.203 µM
- TGI (LOX IMVI melanoma): 0.431 µM
- GI50 (DU-145 prostate): 3.13 µM
- TGI (DU-145 prostate): 12.3 µM
- GI50 (MDA-MB-231 breast): 3.25 µM
- TGI (MDA-MB-231 breast): 11.5 µM
- GI50 (HT29 colon): 2.23 µM
- TGI (HT29 colon): > 16.7 µM
- GI50 (IGROV1 ovarian): 0.403 µM
- TGI (IGROV1 ovarian): 1.11 µM
- GI50 (T-47D breast): 1.65 µM
- TGI (T-47D breast): 12.8 µM
- GI50 (NCI-H522 lung): 0.8 µM
- TGI (NCI-H522 lung): 5.77 µM
- GI50 (HL-60(TB) leukemia): 1.2 µM
- TGI (HL-60(TB) leukemia): 6.29 µM
- GI50 (NCI/ADR-RES ovarian): > 16.7 µM
- TGI (NCI/ADR-RES ovarian): > 16.7 µM
- GI50 (HCC-2998 colon): 2.66 µM
- TGI (HCC-2998 colon): 5.81 µM
- GI50 (HCT-116 colon): 1.05 µM
- TGI (HCT-116 colon): 6.46 µM
- GI50 (SR leukemia): 0.554 µM
- TGI (SR leukemia): 8.71 µM
- GI50 (HOP-62 NSCLC): 2.51 µM
- TGI (HOP-62 NSCLC): 7.59 µM
- GI50 (SF-268 CNS): 3.44 µM
- TGI (SF-268 CNS): 9.8 µM
- GI50 (SK-MEL-28 melanoma): 2.51 µM
- TGI (SK-MEL-28 melanoma): 10.5 µM
- GI50 (SN12C renal): 3.9 µM
- TGI (SN12C renal): > 16.7 µM
- GI50 (SK-MEL-5 melanoma): 2.6 µM
- TGI (SK-MEL-5 melanoma): 9.06 µM
- GI50 (OVCAR-4 ovarian): 3.17 µM
- TGI (OVCAR-4 ovarian): > 16.7 µM
- GI50 (K-562 leukemia): 1.37 µM
- TGI (K-562 leukemia): > 16.7 µM
- GI50 (HOP-92 NSCLC): 1.84 µM
- TGI (HOP-92 NSCLC): 5.78 µM
- GI50 (UACC-62 melanoma): 1.78 µM
- TGI (UACC-62 melanoma): 5.38 µM
- GI50 (PC-3 prostate): 2.23 µM
- TGI (PC-3 prostate): > 16.7 µM
- GI50 (RPMI-8226 leukemia): 0.982 µM
- TGI (RPMI-8226 leukemia): 11.6 µM
- GI50 (SK-OV-3 ovarian): 3.23 µM
- TGI (SK-OV-3 ovarian): 9.27 µM
- GI50 (SNB-75 CNS): 0.707 µM
- TGI (SNB-75 CNS): 9.15 µM
- GI50 (COLO 205 colon): 2.28 µM
- TGI (COLO 205 colon): 8.36 µM
- GI50 (OVCAR-5 ovarian): 3.37 µM
- TGI (OVCAR-5 ovarian): > 16.7 µM
- GI50 (SF-295 CNS): 2.57 µM
- TGI (SF-295 CNS): 6.58 µM
- GI50 (OVCAR-8 ovarian): 2.32 µM
- TGI (OVCAR-8 ovarian): > 16.7 µM
- GI50 (MOLT-4 leukemia): 0.933 µM
- TGI (MOLT-4 leukemia): 10.4 µM
- GI50 (U251 CNS): 2.78 µM
- TGI (U251 CNS): 10.7 µM
- GI50 (A549 NSCLC): 4.83 µM
- TGI (A549 NSCLC): > 16.7 µM
- GI50 (NCI-H23 lung): 3.08 µM
- TGI (NCI-H23 lung): 9.78 µM
- GI50 (HCT-15 colon): 13 µM
- TGI (HCT-15 colon): > 16.7 µM
- GI50 (MALME-3M melanoma): 0.922 µM
- TGI (MALME-3M melanoma): 7.45 µM
- GI50 (SNB-19 CNS): 3.79 µM
- TGI (SNB-19 CNS): > 16.7 µM
- GI50 (MCF7 breast): 1.88 µM
- TGI (MCF7 breast): 7.19 µM
- GI50 (EKVX NSCLC): 4.33 µM
- TGI (EKVX NSCLC): > 16.7 µM
- GI50 (TK-10 renal): 2.98 µM
- TGI (TK-10 renal): 15.1 µM
- GI50 (HS 578T breast): 2.25 µM
- TGI (HS 578T breast): 12.1 µM
- GI50 (UO-31 renal): 3.3 µM
- TGI (UO-31 renal): > 16.7 µM
- GI50 (MDA-MB-435): 2.27 µM
- TGI (MDA-MB-435): 7.29 µM
- GI50 (SF-539 CNS): 2.89 µM
- TGI (SF-539 CNS): 10.5 µM
- GI50 (UACC-257 melanoma): 2.37 µM
- TGI (UACC-257 melanoma): > 16.7 µM

Source: PubChem BioAssay (NCI)
